{
  "source": "patent US20260314598A1",
  "about": "“THE USE OF FLORPYRAUXIFEN-BENZYL AS A SOYBEAN HARVEST AID” (CORTEVA AGRISCIENCE LLC, priority 2022, published 2026)",
  "test_system": "soybean plants",
  "assay": "Field trial of soybean pre-harvest desiccation: visual defoliation after a single spray",
  "type": "in vivo",
  "settings": "for Percentage of defoliation (raw data): single application at R7.2, 100 L/ha spray; for Percentage of defoliation (Abbot's formula): single application at R7.2, adjusted to untreated",
  "protocol": "Field trials were carried out to test the soybean desiccation efficacy of florpyrauxifen-benzyl at 5, 7.5, 10, 15 and 20 g a.i./ha. Soybean plants were sprayed at the R7.2 soybean growth stage.\n[…] Herbicides were diluted in water and a single application for each rate (backpack sprayer) was performed employing 100 L/ha of spray solution. The percentage of visual defoliation was assessed at 3, 7 and 10 days after spray application. The significance of treatment effects was evaluated with F-approximate test (α=0.05) and least square means from different treatments were compared with Tukey's test, after adjusting the % defoliation using Abbott's formula (Abbott, W. S., 1925. A method of computing the effectiveness of an insecticide. J. Econ. Entomol. 18:265-267).",
  "key": {"[1]": {"settings": "3 DAA, 370 g ai/ha, untreated 74.4"}, "[2]": {"settings": "10 DAA, 370 g ai/ha, untreated 89.8"}},
  "data": [
    {"smiles": "CP(=O)(O)CCC(N)C(=O)O", "note": "(centres unmarked) [Ammonium glufosinate, ammonium-glufosinate]", "values": [
      {"measurement": "Percentage of defoliation (raw data)", "setting": "[1]", "result": 84.9, "unit": "%"},
      {"measurement": "Percentage of defoliation (Abbot's formula)", "setting": "3 DAA, 370 g ai/ha", "result": 16.4, "unit": "%"},
      {"measurement": "Percentage of defoliation (raw data)", "setting": "7 DAA, 370 g ai/ha", "result": 93.9, "unit": "%"},
      {"measurement": "Percentage of defoliation (Abbot's formula)", "setting": "7 DAA, 370 g ai/ha", "result": 13.9, "unit": "%"},
      {"measurement": "Percentage of defoliation (raw data)", "setting": "[2]", "result": 98.1, "unit": "%"},
      {"measurement": "Percentage of defoliation (Abbot's formula)", "setting": "10 DAA, 370 g ai/ha", "result": 10.8, "unit": "%"}
    ]},
    {"smiles": "c1cc[n+]2c(c1)-c1cccc[n+]1CC2", "note": "[Diquat, diquat]", "values": [
      {"measurement": "Percentage of defoliation (raw data)", "setting": "[1]", "result": 95.7, "unit": "%"},
      {"measurement": "Percentage of defoliation (Abbot's formula)", "setting": "3 DAA, 370 g ai/ha", "result": 31.7, "unit": "%"},
      {"measurement": "Percentage of defoliation (raw data)", "setting": "7 DAA, 370 g ai/ha", "result": 98.9, "unit": "%"},
      {"measurement": "Percentage of defoliation (Abbot's formula)", "setting": "7 DAA, 370 g ai/ha", "result": 20.5, "unit": "%"},
      {"measurement": "Percentage of defoliation (raw data)", "setting": "[2]", "result": 99.8, "unit": "%"},
      {"measurement": "Percentage of defoliation (Abbot's formula)", "setting": "10 DAA, 370 g ai/ha", "result": 12.9, "unit": "%"}
    ]},
    {"smiles": "COc1c(Cl)ccc(-c2nc(C(=O)OCc3ccccc3)c(Cl)c(N)c2F)c1F", "note": "[Florpyrauxifen-benzyl, florpyrauxifen-benzyl]", "values": [
      {"measurement": "Percentage of defoliation (raw data)", "setting": "3 DAA, 5 g ai/ha, untreated 74.4", "result": 78.8, "unit": "%"},
      {"measurement": "Percentage of defoliation (Abbot's formula)", "setting": "3 DAA, 5 g ai/ha", "result": 7.4, "unit": "%"},
      {"measurement": "Percentage of defoliation (raw data)", "setting": "3 DAA, 7.5 g ai/ha, untreated 74.4", "result": 80.8, "unit": "%"},
      {"measurement": "Percentage of defoliation (Abbot's formula)", "setting": "3 DAA, 7.5 g ai/ha", "result": 10.0, "unit": "%"},
      {"measurement": "Percentage of defoliation (raw data)", "setting": "3 DAA, 10 g ai/ha, untreated 74.4", "result": 81.3, "unit": "%"},
      {"measurement": "Percentage of defoliation (Abbot's formula)", "setting": "3 DAA, 10 g ai/ha", "result": 10.7, "unit": "%"},
      {"measurement": "Percentage of defoliation (raw data)", "setting": "3 DAA, 15 g ai/ha, untreated 74.4", "result": 82.4, "unit": "%"},
      {"measurement": "Percentage of defoliation (Abbot's formula)", "setting": "3 DAA, 15 g ai/ha", "result": 12.3, "unit": "%"},
      {"measurement": "Percentage of defoliation (raw data)", "setting": "3 DAA, 20 g ai/ha, untreated 74.4", "result": 84.3, "unit": "%"},
      {"measurement": "Percentage of defoliation (Abbot's formula)", "setting": "3 DAA, 20 g ai/ha", "result": 15.3, "unit": "%"},
      {"measurement": "Percentage of defoliation (raw data)", "setting": "7 DAA, 5 g ai/ha", "result": 89.3, "unit": "%"},
      {"measurement": "Percentage of defoliation (Abbot's formula)", "setting": "7 DAA, 5 g ai/ha", "result": 7.8, "unit": "%"},
      {"measurement": "Percentage of defoliation (raw data)", "setting": "7 DAA, 7.5 g ai/ha", "result": 90.8, "unit": "%"},
      {"measurement": "Percentage of defoliation (Abbot's formula)", "setting": "7 DAA, 7.5 g ai/ha", "result": 9.6, "unit": "%"},
      {"measurement": "Percentage of defoliation (raw data)", "setting": "7 DAA, 10 g ai/ha", "result": 91.4, "unit": "%"},
      {"measurement": "Percentage of defoliation (Abbot's formula)", "setting": "7 DAA, 10 g ai/ha", "result": 10.4, "unit": "%"},
      {"measurement": "Percentage of defoliation (raw data)", "setting": "7 DAA, 15 g ai/ha", "result": 93.0, "unit": "%"},
      {"measurement": "Percentage of defoliation (Abbot's formula)", "setting": "7 DAA, 15 g ai/ha", "result": 12.7, "unit": "%"},
      {"measurement": "Percentage of defoliation (raw data)", "setting": "7 DAA, 20 g ai/ha", "result": 94.5, "unit": "%"},
      {"measurement": "Percentage of defoliation (Abbot's formula)", "setting": "7 DAA, 20 g ai/ha", "result": 14.7, "unit": "%"},
      {"measurement": "percentage of defoliation compared to untreated plants, versus standards", "setting": "7 DAA, rate not restated (15 and 20 g ai/ha in preceding sentence), Tukey's test", "result": "statistically equivalent to both ammonium-glufosinate and diquat"},
      {"measurement": "Percentage of defoliation (raw data)", "setting": "10 DAA, 5 g ai/ha, untreated 89.8", "result": 97.1, "unit": "%"},
      {"measurement": "Percentage of defoliation (Abbot's formula)", "setting": "10 DAA, 5 g ai/ha", "result": 9.5, "unit": "%"},
      {"measurement": "Percentage of defoliation (raw data)", "setting": "10 DAA, 7.5 g ai/ha, untreated 89.8", "result": 97.9, "unit": "%"},
      {"measurement": "Percentage of defoliation (Abbot's formula)", "setting": "10 DAA, 7.5 g ai/ha", "result": 10.4, "unit": "%"},
      {"measurement": "Percentage of defoliation (raw data)", "setting": "10 DAA, 10 g ai/ha, untreated 89.8", "result": 97.9, "unit": "%"},
      {"measurement": "Percentage of defoliation (Abbot's formula)", "setting": "10 DAA, 10 g ai/ha", "result": 10.5, "unit": "%"},
      {"measurement": "Percentage of defoliation (raw data)", "setting": "10 DAA, 15 g ai/ha, untreated 89.8", "result": 98.6, "unit": "%"},
      {"measurement": "Percentage of defoliation (Abbot's formula)", "setting": "10 DAA, 15 g ai/ha", "result": 11.3, "unit": "%"},
      {"measurement": "Percentage of defoliation (raw data)", "setting": "10 DAA, 20 g ai/ha, untreated 89.8", "result": 99.1, "unit": "%"},
      {"measurement": "Percentage of defoliation (Abbot's formula)", "setting": "10 DAA, 20 g ai/ha", "result": 11.9, "unit": "%"},
      {"measurement": "percentage of defoliation compared to untreated plants, versus standard", "setting": "15 and 20 g ai/ha, 3 DAA, F-approximate test (α=0.05), Tukey's test", "result": "statistically equivalent to ammonium-glufosinate"}
    ]}
  ]
}
